Experimental data reported in ChEMBL document CHEMBL5543091, “Exploring structural determinants of neuroprotection bias on novel glypromate conjugates with bioactive amines” (2024).
Where “and” joins values, the source holds several entries; their conditions need not be identical. Equal values may be shown once. Calls of active or inactive are those of the source. The rule behind the calls is not given here.

Legend:
[1] = tested on: SH-SY5Y; assay: Cytotoxicity against non-differentiated human SH-SY5Y cells assessed as reduction in cell viability measured after 24 hrs by MTT reduction assay relative to control; assay type: functional; design: concentration or dose not given beside the values
[2] = tested on: SH-SY5Y; assay: Cytotoxicity against differentiated human SH-SY5Y cells assessed as reduction in cell viability at 100 uM measured after 48 hrs by MTT reduction assay relative to control; assay type: functional
[3] = tested on: SH-SY5Y; assay: Neuroprotective activity against Amyloid beta(25 to 35)-induced cell injury in non-differentiated human SH-SY5Y cells assessed as reduction in formation of protein aggregates at 100 uM incubated for 24 hrs by ThT fluorescence assay; assay type: functional; design: scale not given: the % may be the effect or the level left
[4] = tested on: SH-SY5Y; assay: Neuroprotective activity against 6-OHDA-induced cytotoxicity in differentiated human SH-SY5Y cells at 100 uM incubated for 48 hrs followed by exposure to 6-OHDA in presence of memantine by MTT reduction assay; assay type: functional, cell-based
[5] = tested on: SH-SY5Y; assay: Neuroprotective activity against 6-OHDA-induced cytotoxicity in differentiated human SH-SY5Y cells at 100 uM incubated for 48 hrs followed by exposure to 6-OHDA by MTT reduction assay (reference value: 61.50+/-7.43%); assay type: functional; design: scale not given: the % may be the effect or the level left
[6] = tested on: SH-SY5Y; assay: Neuroprotective activity against Amyloid beta(25 to 35)-induced cell injury in non-differentiated human SH-SY5Y cells assessed as reduction in formation of protein aggregates at 100 uM incubated for 24 hrs in presence of glypromate by ThT fluorescence assay; assay type: functional; design: scale not given: the % may be the effect or the level left
[7] = tested on: SH-SY5Y; assay: Neuroprotective activity in Amyloid beta(25 to 35)-induced non-differentiated human SH-SY5Y cells assessed as fold increase in protein aggregation reduction 100 uM incubated for 24 hrs by ThT fluorescence assay; assay type: functional
[8] = tested on: SH-SY5Y; assay: Neuroprotective activity against Amyloid beta(25 to 35)-induced cell injury in non-differentiated human SH-SY5Y cells assessed as reduction in formation of protein aggregates at 100 uM incubated for 24 hrs by fluorescence microscopy based analysis; assay type: functional
[9] = tested on: SH-SY5Y; assay: Neuroprotective activity against 6-OHDA-induced cytotoxicity in differentiated human SH-SY5Y cells at 100 uM incubated for 48 hrs followed by exposure to 6-OHDA in presence of glypromate by MTT reduction assay; assay type: functional, cell-based
[10] = tested on: SH-SY5Y; assay: Neuroprotective activity against 6-OHDA-induced cytotoxicity in differentiated human SH-SY5Y cells at 100 uM incubated for 48 hrs followed by exposure to 6-OHDA by MTT reduction assay; assay type: functional, cell-based

Row | Compound | Activity [1] [%] | Activity [2] [%] | Activity [3] [%] | other results
1 | COC(=O)[C@H](CCC(=O)NC12CC3CC(CC(C3)C1)C2)NC(=O)[C@@H]1CCCN1C(=O)CNC(=O)OC(C)(C)C | <85 |  |  | 
2 | COC(=O)[C@H](CCC(=O)N[C@@H]1CCc2ccccc21)NC(=O)[C@@H]1CCCCN1C(=O)CN(C)C |  |  |  | Activity ([1]; 24 h): 97.03% and <85%
3 | COC(=O)[C@H](CCC(=O)NC12CC3CC(C)(CC(C)(C3)C1)C2)NC(=O)[C@@H]1CCCCN1C(=O)CNC(=O)OC(C)(C)C | <85 | 91.53 |  | 
4 | COC(=O)[C@H](CCC(=O)N[C@@H]1CCc2ccccc21)NC(=O)[C@@H]1CCCCN1C(=O)CNC(=O)OC(C)(C)C | 96.69 |  | 120.77 | 
5 | NCC(=O)N1CCC[C@H]1C(=O)N[C@@H](CCC(=O)O)C(=O)O |  |  | 87.78 | Activity [4]: inactive
6 | COC(=O)CC[C@H](NC(=O)[C@@H]1CCCCN1C(=O)CN)C(=O)NC12CC3CC(CC(C3)C1)C2.O=C(O)C(F)(F)F | 92.68 | 97.33 | 132.48 | 
7 | COC(=O)CC[C@H](NC(=O)[C@@H]1CCCN1C(=O)CN(C)C)C(=O)NC12CC3CC(C)(CC(C)(C3)C1)C2 | <85 | 103.96 |  | Activity [5]: 70.93%
8 | COC(=O)[C@H](CCC(=O)NC12CC3CC(C)(CC(C)(C3)C1)C2)NC(=O)[C@@H]1CCCN1C(=O)CN(C)C | <85 | 99.94 |  | Activity [5]: 65.16%
9 | COC(=O)CC[C@H](NC(=O)[C@@H]1CCCN1C(=O)CN)C(=O)NC12CC3CC(CC(C3)C1)C2.O=C(O)C(F)(F)F | 94.84 | 109.73 |  | Activity [5]: 67.28%
10 | COC(=O)[C@H](CCC(=O)NC12CC3CC(CC(C3)C1)C2)NC(=O)[C@@H]1CCCCN1C(=O)CN(C)C | <85 | <25 |  | 
11 | COC(=O)[C@H](CCC(=O)NC12CC3CC(C)(CC(C)(C3)C1)C2)NC(=O)[C@@H]1CCCN1C(=O)CN.O=C(O)C(F)(F)F | <85 |  |  | 
12 | COC(=O)CC[C@H](NC(=O)[C@@H]1CCCCN1C(=O)CNC(=O)OC(C)(C)C)C(=O)N[C@@H]1CCc2ccccc21 | 97.28 | 99.35 | 120.05 | 
13 | COC(=O)CC[C@H](NC(=O)[C@@H]1CCCN1C(=O)CNC(=O)OC(C)(C)C)C(=O)N[C@@H]1CCc2ccccc21 | <85 |  |  | 
14 | COC(=O)CC[C@H](NC(=O)[C@@H]1CCCCN1C(=O)CN(C)C)C(=O)NC12CC3CC(CC(C3)C1)C2 | 93.57 |  |  | 
15 | COC(=O)[C@H](CCC(=O)NC12CC3CC(CC(C3)C1)C2)NC(=O)[C@@H]1CCCCN1C(=O)CNC(=O)OC(C)(C)C | 92.96 | 91.13 | 127.26 | 
16 | N[C@@H]1CCc2ccccc21 |  |  | 38 | Activity [6]: 79.68%
17 | COC(=O)[C@H](CCC(=O)N[C@@H]1CCc2ccccc21)NC(=O)[C@@H]1CCCN1C(=O)CNC(=O)OC(C)(C)C | <85 |  |  | 
18 | COC(=O)CC[C@H](NC(=O)[C@@H]1CCCCN1C(=O)CN)C(=O)NC12CC3CC(C)(CC(C)(C3)C1)C2.O=C(O)C(F)(F)F | <85 | <25 |  | 
19 | COC(=O)CC[C@H](NC(=O)[C@@H]1CCCCN1C(=O)CN(C)C)C(=O)N[C@@H]1CCc2ccccc21 |  | 94.5 |  | Activity ([1]; 24 h): 95.12% and <85%
20 | COC(=O)[C@H](CCC(=O)N[C@@H]1CCc2ccccc21)NC(=O)[C@@H]1CCCN1C(=O)CN(C)C | 99.51 | 99.49 | 81.51 | 

Row | Compound | Activity [1] [%] | Activity [2] [%] | Activity [3] [%] | other results
21 | COC(=O)CC[C@H](NC(=O)[C@@H]1CCCN1C(=O)CN)C(=O)NC12CC3CC(C)(CC(C)(C3)C1)C2.O=C(O)C(F)(F)F | <85 | 97.3 |  | 
22 | COC(=O)CC[C@H](NC(=O)[C@@H]1CCCN1C(=O)CNC(=O)OC(C)(C)C)C(=O)NC12CC3CC(CC(C3)C1)C2 | 89.28 |  | 80.35 | 
23 | COC(=O)[C@H](CCC(=O)NC12CC3CC(C)(CC(C)(C3)C1)C2)NC(=O)[C@@H]1CCCCN1C(=O)CN.O=C(O)C(F)(F)F | <85 | <25 |  | 
24 | COC(=O)CC[C@H](NC(=O)[C@@H]1CCCN1C(=O)CN(C)C)C(=O)N[C@@H]1CCc2ccccc21 | 93.5 | 104.91 | 69.21 | 
25 | COC(=O)CC[C@H](NC(=O)[C@@H]1CCCN1C(=O)CN(C)C)C(=O)NC12CC3CC(CC(C3)C1)C2 | 91.14 | 107.67 | 79.52 | Activity [5]: 68.03%
26 | COC(=O)CC[C@H](NC(=O)[C@@H]1CCCCN1C(=O)CN(C)C)C(=O)NC12CC3CC(C)(CC(C)(C3)C1)C2 | <85 | <25 |  | 
27 | COC(=O)CC[C@H](NC(=O)[C@@H]1CCCN1C(=O)CN)C(=O)N[C@@H]1CCc2ccccc21.O=C(O)C(F)(F)F | 87.33 | 98.44 | 62.25 | fold change (FC) [7]: 3.2; Activity [8]: Active; Activity [5]: 65.5%
28 | COC(=O)[C@H](CCC(=O)N[C@@H]1CCc2ccccc21)NC(=O)[C@@H]1CCCCN1C(=O)CN.O=C(O)C(F)(F)F | 89.37 |  |  | 
29 | CC12CC3CC(C)(C1)CC(N)(C3)C2 |  |  |  | Activity [9]: inactive; Activity [10]: inactive
30 | COC(=O)CC[C@H](NC(=O)[C@@H]1CCCCN1C(=O)CNC(=O)OC(C)(C)C)C(=O)NC12CC3CC(C)(CC(C)(C3)C1)C2 | <85 | 94.5 |  | 
31 | COC(=O)[C@H](CCC(=O)NC12CC3CC(CC(C3)C1)C2)NC(=O)[C@@H]1CCCN1C(=O)CN(C)C | 86.22 |  |  | 
32 | COC(=O)[C@H](CCC(=O)NC12CC3CC(C)(CC(C)(C3)C1)C2)NC(=O)[C@@H]1CCCCN1C(=O)CN(C)C | <85 | <25 |  | 
33 | COC(=O)CC[C@H](NC(=O)[C@@H]1CCCCN1C(=O)CN)C(=O)N[C@@H]1CCc2ccccc21.O=C(O)C(F)(F)F | 94.96 | 98.85 | 129.25 | 
34 | COC(=O)CC[C@H](NC(=O)[C@@H]1CCCN1C(=O)CNC(=O)OC(C)(C)C)C(=O)NC12CC3CC(C)(CC(C)(C3)C1)C2 | <85 |  |  | 
35 | COC(=O)[C@H](CCC(=O)NC12CC3CC(CC(C3)C1)C2)NC(=O)[C@@H]1CCCCN1C(=O)CN.O=C(O)C(F)(F)F | 87.9 |  |  | 
36 | COC(=O)CC[C@H](NC(=O)[C@@H]1CCCCN1C(=O)CNC(=O)OC(C)(C)C)C(=O)NC12CC3CC(CC(C3)C1)C2 | 92.73 | 101.45 | 133.03 | 
37 | COC(=O)[C@H](CCC(=O)N[C@@H]1CCc2ccccc21)NC(=O)[C@@H]1CCCN1C(=O)CN.O=C(O)C(F)(F)F | 94.4 | 98.02 | 57.42 | fold change (FC) [7]: 3.6; Activity [8]: Active
38 | COC(=O)[C@H](CCC(=O)NC12CC3CC(CC(C3)C1)C2)NC(=O)[C@@H]1CCCN1C(=O)CN.O=C(O)C(F)(F)F | 89.04 |  |  | 
39 | COC(=O)[C@H](CCC(=O)NC12CC3CC(C)(CC(C)(C3)C1)C2)NC(=O)[C@@H]1CCCN1C(=O)CNC(=O)OC(C)(C)C | <85 |  |  | 
